Experimental data reported in patent US10435400B2, “2,4-disubstituted phenylene-1,5-diamine derivatives and applications thereof, and pharmaceutical compositions and pharmaceutically acceptable compositions prepared therefrom” (SHANGHAI HAIYAN PHARMACEUTICAL TECHNOLOGY CO., LTD., priority 2014, dated 2019).
Where two headings read alike, the source gives them in different places.

Key:
A431 cells [1] = experiment: ELISA cell activity, EGF-stimulated A431 cells; assay type: cell-based; conditions: ELISA, compound 1 h then EGF 45 minutes, read-out: A431 cells (IC50/nM);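 also: Serum-starved A431 cells pretreated with compound for 1 h, then stimulated with EGF for 45 min, lysates read by ELISA (OD450 minus OD570), EGF-only wells as control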
A431 cells [2] = experiment: Cytostatic activity by MTT method, A431 cells; conditions: read-out: A431 cells (IC50/nM);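 also: viability read by MTT reduction after compound exposure, with MTT incubated for a further 4 h at 37 °C under 5% CO2 in 96-well plates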
Description: After rinsed for one time, 1.5 ml trypsin/EDTA was added to digest the adherent cells until the cells detached, and then 3.5 ml of medium was added to terminate the trypsinization. The digested cell suspension was transferred to a 15 ml falcon tube, and spun at 1300 rpm for 3 min, the supernatant was discarded, and cells were suspended in fresh medium.
The cells were added into the incubator after addition of the test compound, and incubated for 72 h, 10 μl of 5 mg/ml MTT (Sigma, M5655) solution was added to each well of the plate, and incubated the 96-well plates at 37° C. 5% CO2 for 4 h in a incubator.
The plates were spun at 2000 rpm for 5 min.

H1975 cells [3] = experiment: Cytostatic activity by MTT method, H1975 cells; assay type: cell-based; conditions: MTT; for IC50: 72 h, read-out: H1975 cells (IC50/nM); for selective inhibitory activity against the cell growth [IC50 (A431 cells)/IC50 (H1975 cells)]: ratio of IC50 values
EGFR WT kinase = EGFR WT kinase (Homo sapiens (Human), UniProt P00533); experiment: Wild type EGFR kinase inhibition test (z-lyte); assay type: biochemical; conditions: 10 μM ATP
H1975 cells [4] = experiment: ELISA screening EGFR T790M inhibitor for cell activity, H1975 cells; assay type: cell-based; conditions: ELISA; for Selective inhibitory activities of target on cellular level [IC50 (A431 cells)/IC50 (H1975 cells)]: ratio of IC50 values; for IC50: compound 1 h, read-out: H1975 cells (IC50/nM)
NIH3T3 cells = experiment: Cytotoxicity by MTT method, NIH3T3 cells; assay type: cell-based; conditions: cytotoxicity, MTT, 72 h, read-out: NIH3T3 cells MTT assay (IC50/nM);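 also: cells grown in 96-well plates with compound for 72 h, then given MTT for a further 4 h at 37 °C under 5% CO2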

Sequence of EGFR WT kinase (P00533 25-1210): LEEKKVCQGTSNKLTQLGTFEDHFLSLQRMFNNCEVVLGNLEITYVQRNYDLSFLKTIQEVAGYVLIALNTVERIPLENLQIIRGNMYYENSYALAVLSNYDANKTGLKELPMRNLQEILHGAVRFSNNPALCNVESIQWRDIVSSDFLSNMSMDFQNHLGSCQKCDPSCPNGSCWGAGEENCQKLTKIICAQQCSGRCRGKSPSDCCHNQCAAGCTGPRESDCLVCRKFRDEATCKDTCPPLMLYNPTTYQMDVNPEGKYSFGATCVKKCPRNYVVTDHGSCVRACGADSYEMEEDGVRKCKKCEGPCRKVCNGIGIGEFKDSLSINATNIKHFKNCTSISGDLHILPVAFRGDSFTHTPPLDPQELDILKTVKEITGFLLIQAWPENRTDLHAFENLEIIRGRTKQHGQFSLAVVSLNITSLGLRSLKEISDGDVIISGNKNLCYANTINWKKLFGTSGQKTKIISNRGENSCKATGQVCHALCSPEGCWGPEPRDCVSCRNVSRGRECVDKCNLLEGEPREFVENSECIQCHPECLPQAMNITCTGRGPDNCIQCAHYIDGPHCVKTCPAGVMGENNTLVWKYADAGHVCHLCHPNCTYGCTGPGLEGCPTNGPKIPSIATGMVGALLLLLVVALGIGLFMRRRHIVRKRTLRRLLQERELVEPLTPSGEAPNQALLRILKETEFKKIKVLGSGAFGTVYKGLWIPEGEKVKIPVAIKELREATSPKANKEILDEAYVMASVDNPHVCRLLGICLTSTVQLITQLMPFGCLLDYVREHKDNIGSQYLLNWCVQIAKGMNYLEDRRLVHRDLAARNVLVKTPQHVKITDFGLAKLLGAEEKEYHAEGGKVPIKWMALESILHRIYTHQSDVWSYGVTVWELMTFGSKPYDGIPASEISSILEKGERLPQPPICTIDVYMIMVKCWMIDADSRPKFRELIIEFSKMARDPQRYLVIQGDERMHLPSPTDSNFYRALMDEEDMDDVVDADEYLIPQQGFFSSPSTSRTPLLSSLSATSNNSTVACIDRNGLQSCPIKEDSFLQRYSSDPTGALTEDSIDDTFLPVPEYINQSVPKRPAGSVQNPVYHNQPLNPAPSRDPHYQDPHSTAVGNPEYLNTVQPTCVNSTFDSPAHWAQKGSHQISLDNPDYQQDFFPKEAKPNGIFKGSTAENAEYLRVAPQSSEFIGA

SMILES	IC50 (A431 cells [1]; Homo sapiens, A-431) [nM]	IC50 (A431 cells [2]; Homo sapiens, A-431, 72 h) [nM]	IC50 (H1975 cells [3]; Homo sapiens, NCI-H1975) [nM]	selective inhibitory activity against the cell growth [IC50 (A431 cells)/IC50 (H1975 cells)] (H1975 cells [3])	IC50 (EGFR WT kinase) [nM]	Selective inhibitory activities of target on cellular level [IC50 (A431 cells)/IC50 (H1975 cells)] (H1975 cells [4])	IC50 (H1975 cells [4]; Homo sapiens, NCI-H1975) [nM]	IC50 (NIH3T3 cells; Mus musculus, NIH3T3) [nM]	IC50 (A431 cells [1]) [nM]	IC50 (A431 cells [2]; MTT, 72 h) [nM]	IC50 (NIH3T3 cells) [nM]	IC50 (H1975 cells [3]) [nM]	IC50 (H1975 cells [4]) [nM]
C=CC(=O)Nc1cc(Nc2nccc(-c3cnc4c(cnn4C)c3)n2)c(OC)cc1N(C)CCN(C)C [Compound Z-6, N-(2-((2-(dimethylamino)ethyl)(methyl)amino)-4-methoxy-5-(4-(1-methyl-1H-pyrazolo[3,4-b]pyridin-5-yl)pyrimidin-2-ylamino)phenyl)acrylamide]	194	773	17	45.5	10	5.7	34	–	–	–	–	–	–
C=CC(=O)Nc1cc(Nc2nccc(-c3cnc4c(ccn4C)c3)n2)c(OC)cc1N(C)CCN(C)C [Compound Z-16, N-(2-((2-(dimethylamino)ethyl)(methyl)amino)-4-methoxy-5-((4-(1-methyl-1H-pyrrolo[2,3-b]pyridin-5-yl)pyrimidin-2-yl)amino)phenyl)acrylamide]	153	871	9	97	4	15.3	10	> 10000	–	–	–	–	–
C=CC(=O)Nc1cc(Nc2ncc(Cl)c(-c3cnn(C)c3)n2)c(OC)cc1N(C)CCN(C)C [Compound Z-19, N-(5-((5-chloro-4-(1-methyl-1H-pyrazol-4-yl)pyrimidin-2-yl)amino)-2-((2-(dimethylamino)ethyl)(methyl)amino)-4-methoxyphenyl)acrylamide]	675	757	22	–	–	–	21	4510	–	–	–	–	–
C=CC(=O)Nc1cc(Nc2ncc(C(F)(F)F)c(-c3cnc4c(ccn4C)c3)n2)c(OC)cc1N(C)CCN(C)C [Compound Z-22, N-(2-((2-(dimethylamino)ethyl)(methyl)amino)-4-methoxy-5-((4-(1-methyl-1H-pyrrolo[2,3-b]pyridin-5-yl)-5-(trifluoromethyl)pyrimidin-2-yl)amino)phenyl)acrylamide]	1230	1900	29	65.5	57	53.6	23	–	–	–	–	–	–
C=CC(=O)Nc1cc(Nc2nccc(-c3cnc4c(ccn4C)c3)n2)c(OC)cc1N1CC(N(C)C)C1 [Compound Z-27]	–	–	–	50.1	19	21.7	–	–	955	2480	7960	49	44
C=CC(=O)Nc1cc(Nc2nccc(-c3cnc4[nH]ccc4c3)n2)c(OC)cc1N(C)CCN(C)C [Compound Z-30]	–	–	–	44.4	–	–	–	–	–	1110	5790	25	–
C=CC(=O)Nc1cc(Nc2ncc(Cl)c(-c3cnc4c(cnn4C)c3)n2)c(OC)cc1N(C)CCN(C)C [Compound Z-39]	–	–	–	57.4	33	16.1	–	–	660	918	8890	16	41
C=CC(=O)Nc1cc(Nc2ncc(OC)c(-c3cnc4c(cnn4C)c3)n2)c(OC)cc1N(C)CCN(C)C [Compound Z-44]	–	–	–	56.7	30	–	–	–	–	1810	8880	32	–
C=CC(=O)Nc1cc(Nc2ncc(Cl)c(-c3cnn(C)c3C)n2)c(OC)cc1N(C)CCN(C)C [Compound Z-55]	–	–	–	–	21	–	–	–	200	660	5420	–	15
C=CC(=O)Nc1cc(Nc2ncc(Cl)c(-c3c(C)nn(C)c3C)n2)c(OC)cc1N(C)CCN(C)C [Compound Z-91, N-(5-(5-chloro-4-(1,3,5-trimethyl-1H-pyrazol-4-yl)pyrimidin-2-ylamino)-2-((2-(dimethylamino)ethyl)(methyl)amino)-4-methoxyphenyl)acrylamide]	3280	3610	36	100.3	195	36.4	90	> 10000	–	–	–	–	–
C=CC(=O)Nc1cc(Nc2ncc(Cl)c(-c3cn(C)nc3C)n2)c(OC)cc1N(C)CCN(C)C [Compound Z-94, N-(5-(5-chloro-4-(1,3-dimethyl-1H-pyrazol-4-yl)pyrimidin-2-ylamino)-2-((2-(dimethylamino)ethyl)(methyl)amino)-4-methoxyphenyl)acrylamide]	372	645	8	80.6	20	23.3	16	> 10000	–	–	–	–	–
